Reference: ChEMBL document CHEMBL5678818, “Discovery of potent SOS1 inhibitors that block RAS activation via disruption of the RAS-SOS1 interaction” (Proc Natl Acad Sci U S A, 2019)

Experiments:
[1] = tested on: Epidermal growth factor receptor (Homo sapiens), P00533 [G719C]; assay: Inhibition of EGFR G719C mutant (unknown origin) assessed as residual activity at 100 nM by KINOMEscan analysis relative to control
[2] = biological target: Cyclin-dependent kinase 8 (Homo sapiens) (UniProt P49336); assay: Inhibition of CDK8 (unknown origin) assessed as residual activity at 100 nM by KINOMEscan analysis relative to control
[3] = biological target: T1, Rhodopsin kinase GRK1 (Homo sapiens) (UniProt Q15835); assay: Inhibition of GRK1 (unknown origin) assessed as residual activity at 100 nM by KINOMEscan analysis relative to control
T1 sequence (whole entry): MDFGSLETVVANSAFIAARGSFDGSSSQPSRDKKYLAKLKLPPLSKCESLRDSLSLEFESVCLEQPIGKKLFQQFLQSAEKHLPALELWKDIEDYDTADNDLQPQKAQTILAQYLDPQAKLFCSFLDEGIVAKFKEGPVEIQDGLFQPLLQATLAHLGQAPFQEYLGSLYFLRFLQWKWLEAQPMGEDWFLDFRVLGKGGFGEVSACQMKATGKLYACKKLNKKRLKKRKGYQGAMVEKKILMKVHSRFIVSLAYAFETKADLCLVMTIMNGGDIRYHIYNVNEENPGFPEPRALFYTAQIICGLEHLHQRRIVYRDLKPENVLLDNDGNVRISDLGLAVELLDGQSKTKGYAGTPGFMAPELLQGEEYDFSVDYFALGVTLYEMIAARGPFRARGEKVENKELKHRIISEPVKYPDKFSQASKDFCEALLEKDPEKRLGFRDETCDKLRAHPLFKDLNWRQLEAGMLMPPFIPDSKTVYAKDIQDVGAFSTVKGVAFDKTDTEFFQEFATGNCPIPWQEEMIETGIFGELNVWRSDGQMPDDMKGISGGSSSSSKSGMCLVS

[4] = biological target: Serine/threonine-protein kinase WNK1 (Homo sapiens) (UniProt Q9H4A3); assay: Inhibition of WNK1 (unknown origin) assessed as residual activity at 100 nM by KINOMEscan analysis relative to control
[5] = biological target: T2, Cyclin-dependent kinase-like 5 (Homo sapiens) (UniProt O76039); assay: Inhibition of CDKL5 (unknown origin) assessed as residual activity at 100 nM by KINOMEscan analysis relative to control
T2 sequence (whole entry): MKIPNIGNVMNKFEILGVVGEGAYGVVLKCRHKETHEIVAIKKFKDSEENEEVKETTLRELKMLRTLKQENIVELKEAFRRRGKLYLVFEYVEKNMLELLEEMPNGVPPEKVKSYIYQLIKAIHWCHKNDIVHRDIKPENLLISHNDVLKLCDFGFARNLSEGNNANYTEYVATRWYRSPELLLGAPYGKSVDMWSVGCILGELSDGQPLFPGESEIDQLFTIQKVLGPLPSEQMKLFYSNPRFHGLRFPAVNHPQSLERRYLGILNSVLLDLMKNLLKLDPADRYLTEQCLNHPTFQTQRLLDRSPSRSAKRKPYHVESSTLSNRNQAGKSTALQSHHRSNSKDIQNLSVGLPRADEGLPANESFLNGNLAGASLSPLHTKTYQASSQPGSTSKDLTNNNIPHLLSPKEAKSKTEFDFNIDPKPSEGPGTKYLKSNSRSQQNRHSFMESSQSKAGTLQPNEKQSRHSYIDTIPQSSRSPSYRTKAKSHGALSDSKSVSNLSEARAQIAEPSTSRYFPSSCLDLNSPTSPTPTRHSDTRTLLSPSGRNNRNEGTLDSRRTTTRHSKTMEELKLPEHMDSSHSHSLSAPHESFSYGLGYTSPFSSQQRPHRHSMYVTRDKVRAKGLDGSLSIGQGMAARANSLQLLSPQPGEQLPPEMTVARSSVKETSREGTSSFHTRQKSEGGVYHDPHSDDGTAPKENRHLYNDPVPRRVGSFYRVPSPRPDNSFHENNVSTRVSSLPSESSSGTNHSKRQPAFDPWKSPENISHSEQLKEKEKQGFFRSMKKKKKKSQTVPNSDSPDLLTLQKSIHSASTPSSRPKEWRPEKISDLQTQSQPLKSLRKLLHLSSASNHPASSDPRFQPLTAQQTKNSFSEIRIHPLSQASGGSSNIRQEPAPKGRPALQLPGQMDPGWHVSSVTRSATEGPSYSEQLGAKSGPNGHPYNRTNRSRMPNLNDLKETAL

[6] = biological target: T3, Myosin light chain kinase family member 4 (Homo sapiens) (UniProt Q86YV6); assay: Inhibition of MYLK4 (unknown origin) assessed as residual activity at 100 nM by KINOMEscan analysis relative to control
T3 sequence (whole entry): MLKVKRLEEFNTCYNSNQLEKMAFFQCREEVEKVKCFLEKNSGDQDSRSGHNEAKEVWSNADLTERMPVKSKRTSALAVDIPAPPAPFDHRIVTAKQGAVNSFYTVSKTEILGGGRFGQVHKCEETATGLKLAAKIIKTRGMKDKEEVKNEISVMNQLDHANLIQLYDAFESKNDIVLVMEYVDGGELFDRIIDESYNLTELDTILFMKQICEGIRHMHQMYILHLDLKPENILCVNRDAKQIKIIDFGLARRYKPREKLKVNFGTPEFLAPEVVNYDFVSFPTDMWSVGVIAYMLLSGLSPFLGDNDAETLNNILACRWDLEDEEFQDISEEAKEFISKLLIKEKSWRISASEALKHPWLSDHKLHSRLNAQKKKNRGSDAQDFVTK

[7] = tested on: Mast/stem cell growth factor receptor Kit (Homo sapiens), P10721 [V559D,T670I]; assay: Inhibition of KIT V559D/T670I mutant (unknown origin) assessed as residual activity at 100 nM by KINOMEscan analysis relative to control
Chain of Mast/stem cell growth factor receptor Kit (Homo sapiens), P10721 [V559D,T670I] (P10721 whole entry V559D/T670I): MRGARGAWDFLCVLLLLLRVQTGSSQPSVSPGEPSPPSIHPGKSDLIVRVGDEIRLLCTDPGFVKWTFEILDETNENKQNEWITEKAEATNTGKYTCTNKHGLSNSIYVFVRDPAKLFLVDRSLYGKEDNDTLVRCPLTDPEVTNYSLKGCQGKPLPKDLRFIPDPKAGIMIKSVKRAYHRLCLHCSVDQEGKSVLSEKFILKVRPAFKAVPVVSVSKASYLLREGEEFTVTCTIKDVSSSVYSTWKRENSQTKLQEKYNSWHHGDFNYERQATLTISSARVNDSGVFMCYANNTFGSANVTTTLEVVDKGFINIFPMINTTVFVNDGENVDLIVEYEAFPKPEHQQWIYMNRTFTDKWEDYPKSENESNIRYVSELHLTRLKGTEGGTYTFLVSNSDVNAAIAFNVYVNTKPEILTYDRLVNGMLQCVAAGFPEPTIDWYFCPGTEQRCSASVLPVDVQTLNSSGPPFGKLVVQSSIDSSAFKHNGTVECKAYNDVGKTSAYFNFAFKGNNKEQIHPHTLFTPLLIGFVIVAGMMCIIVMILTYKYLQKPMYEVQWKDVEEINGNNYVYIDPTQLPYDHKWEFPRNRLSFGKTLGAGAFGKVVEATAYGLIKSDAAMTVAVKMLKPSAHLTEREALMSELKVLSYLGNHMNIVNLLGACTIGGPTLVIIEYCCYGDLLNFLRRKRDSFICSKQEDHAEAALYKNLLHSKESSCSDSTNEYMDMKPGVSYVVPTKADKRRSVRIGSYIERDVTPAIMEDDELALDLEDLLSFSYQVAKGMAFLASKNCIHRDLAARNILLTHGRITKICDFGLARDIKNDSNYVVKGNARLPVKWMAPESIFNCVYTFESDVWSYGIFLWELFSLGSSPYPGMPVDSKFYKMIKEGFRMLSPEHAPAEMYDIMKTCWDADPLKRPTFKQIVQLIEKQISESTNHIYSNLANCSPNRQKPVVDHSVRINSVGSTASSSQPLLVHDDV

Chain of Serine/threonine-protein kinase WNK1 (Homo sapiens) (Q9H4A3 whole entry, looked up): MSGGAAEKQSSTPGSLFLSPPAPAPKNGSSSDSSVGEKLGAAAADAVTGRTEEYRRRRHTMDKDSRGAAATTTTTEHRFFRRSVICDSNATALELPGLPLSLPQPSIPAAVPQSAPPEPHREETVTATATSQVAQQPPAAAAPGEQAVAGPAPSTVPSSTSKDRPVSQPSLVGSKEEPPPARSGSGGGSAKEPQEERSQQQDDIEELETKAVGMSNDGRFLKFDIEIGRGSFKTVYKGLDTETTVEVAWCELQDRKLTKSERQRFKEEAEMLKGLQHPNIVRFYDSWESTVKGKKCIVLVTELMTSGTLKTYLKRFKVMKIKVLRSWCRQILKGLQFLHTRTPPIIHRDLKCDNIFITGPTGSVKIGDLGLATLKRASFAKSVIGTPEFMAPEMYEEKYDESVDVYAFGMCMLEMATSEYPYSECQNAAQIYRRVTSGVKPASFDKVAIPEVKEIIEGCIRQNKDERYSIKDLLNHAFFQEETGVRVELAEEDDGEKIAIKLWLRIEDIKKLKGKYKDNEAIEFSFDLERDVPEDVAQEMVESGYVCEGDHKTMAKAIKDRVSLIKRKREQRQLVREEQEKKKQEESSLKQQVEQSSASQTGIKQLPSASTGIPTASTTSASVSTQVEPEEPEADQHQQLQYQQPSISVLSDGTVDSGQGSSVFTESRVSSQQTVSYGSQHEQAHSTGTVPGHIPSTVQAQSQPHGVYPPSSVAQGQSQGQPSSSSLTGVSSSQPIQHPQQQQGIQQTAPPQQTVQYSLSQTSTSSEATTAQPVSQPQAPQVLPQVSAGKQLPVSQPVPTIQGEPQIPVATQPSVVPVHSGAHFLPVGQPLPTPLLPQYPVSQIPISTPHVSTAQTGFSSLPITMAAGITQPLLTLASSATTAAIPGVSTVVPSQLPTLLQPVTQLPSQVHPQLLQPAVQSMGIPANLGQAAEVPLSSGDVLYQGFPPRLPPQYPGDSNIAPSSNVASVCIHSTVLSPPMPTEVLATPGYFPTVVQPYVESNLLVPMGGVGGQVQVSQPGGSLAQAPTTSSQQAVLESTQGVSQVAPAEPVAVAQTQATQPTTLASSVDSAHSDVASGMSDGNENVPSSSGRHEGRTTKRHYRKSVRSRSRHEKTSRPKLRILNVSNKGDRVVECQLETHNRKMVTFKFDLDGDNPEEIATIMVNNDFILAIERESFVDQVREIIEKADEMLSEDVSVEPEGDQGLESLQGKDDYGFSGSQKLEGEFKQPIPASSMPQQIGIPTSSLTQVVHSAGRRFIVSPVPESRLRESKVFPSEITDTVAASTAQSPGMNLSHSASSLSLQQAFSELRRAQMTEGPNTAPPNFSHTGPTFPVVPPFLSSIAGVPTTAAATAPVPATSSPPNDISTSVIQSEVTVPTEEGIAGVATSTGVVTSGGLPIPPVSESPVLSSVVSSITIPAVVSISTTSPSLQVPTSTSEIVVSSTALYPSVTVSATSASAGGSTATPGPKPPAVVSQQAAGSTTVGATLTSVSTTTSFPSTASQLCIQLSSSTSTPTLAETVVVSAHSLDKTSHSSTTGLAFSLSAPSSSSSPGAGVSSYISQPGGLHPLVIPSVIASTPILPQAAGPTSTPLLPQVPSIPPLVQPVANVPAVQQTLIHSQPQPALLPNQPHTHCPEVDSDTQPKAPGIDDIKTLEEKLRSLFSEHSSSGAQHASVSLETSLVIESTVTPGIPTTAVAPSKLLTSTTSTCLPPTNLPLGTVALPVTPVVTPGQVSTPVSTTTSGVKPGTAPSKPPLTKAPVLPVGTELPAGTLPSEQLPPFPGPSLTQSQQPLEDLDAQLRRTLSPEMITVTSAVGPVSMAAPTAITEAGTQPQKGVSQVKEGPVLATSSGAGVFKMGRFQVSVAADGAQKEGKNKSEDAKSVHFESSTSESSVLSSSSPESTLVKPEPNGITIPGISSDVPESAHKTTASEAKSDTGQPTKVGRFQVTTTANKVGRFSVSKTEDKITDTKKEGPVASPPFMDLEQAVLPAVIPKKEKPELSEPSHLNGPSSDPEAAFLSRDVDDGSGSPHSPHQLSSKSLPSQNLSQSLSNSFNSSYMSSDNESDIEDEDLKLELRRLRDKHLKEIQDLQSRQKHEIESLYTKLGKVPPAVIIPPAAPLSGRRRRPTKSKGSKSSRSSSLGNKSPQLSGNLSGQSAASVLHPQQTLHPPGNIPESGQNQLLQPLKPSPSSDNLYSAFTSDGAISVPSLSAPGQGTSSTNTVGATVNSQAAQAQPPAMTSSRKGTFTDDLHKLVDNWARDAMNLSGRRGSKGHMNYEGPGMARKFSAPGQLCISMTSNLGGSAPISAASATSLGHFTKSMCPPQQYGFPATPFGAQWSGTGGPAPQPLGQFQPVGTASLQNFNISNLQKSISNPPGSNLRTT
Chain of Cyclin-dependent kinase 8 (Homo sapiens) (P49336 whole entry): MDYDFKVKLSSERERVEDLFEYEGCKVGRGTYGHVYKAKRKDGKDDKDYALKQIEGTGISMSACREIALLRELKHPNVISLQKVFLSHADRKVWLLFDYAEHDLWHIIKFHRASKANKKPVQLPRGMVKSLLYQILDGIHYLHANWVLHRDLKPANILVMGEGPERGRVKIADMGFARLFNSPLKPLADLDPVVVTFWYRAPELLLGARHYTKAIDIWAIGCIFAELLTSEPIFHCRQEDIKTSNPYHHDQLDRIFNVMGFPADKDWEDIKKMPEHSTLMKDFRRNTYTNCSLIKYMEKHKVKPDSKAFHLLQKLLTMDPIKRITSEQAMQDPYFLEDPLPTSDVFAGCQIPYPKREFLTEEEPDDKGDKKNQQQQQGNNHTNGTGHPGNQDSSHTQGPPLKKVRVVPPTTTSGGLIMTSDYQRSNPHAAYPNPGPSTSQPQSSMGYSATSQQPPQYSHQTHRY

Question: Which results are given for COc1cc2ncnc(N[C@H](C)c3cccc4ccccc34)c2cc1OC?
Answer: Activity [1]: 89%; Activity [2]: 91%; Activity [3]: 96%; Activity [4]: 83%; Activity [5]: 96%; Activity [6]: 99%; Activity [7]: 92%
